Test results published in patent publication EP0676203A1, “Pharmaceutical compositions of antiglucocorticoid compounds for treating or preventing symptoms of spontaneous or narcotic-induced withdrawal” (ROUSSEL UCLAF, priority 1994, dated 1995).
“And” between values parts separate entries of the source, which are not always exact repeats. Equal values may be shown once.

Tests used:
[1] = tested on: souris dépendantes à la morphine; assay: Naloxone-precipitated withdrawal syndrome (jumping) in morphine-treated mice, repeated 4-day oral treatment; type: in vivo
Excerpt: (§1) Les expériences ont été réalisées chez des souris mâles Swiss normales ou surrénalectomisées (Charles River, France) d'un poids corporel compris entre 20 et 25 g. Durant les essais, les animaux ont eu libre accès à la nourriture et à l'eau de boisson. Le nombre d'animaux par groupe est de 10 à 13 souris.
(§2) Les antiglucocorticoïdes : • AG1 (17β-hydroxy 11β-(4-diméthylaminophényl) 17α-(prop-1-ynyl) estra 4,9-dièn-3-one), • AG2 (17β-hydroxy 10β-[(4-méthylphényl) méthyl] 17α-(prop-1-ynyl) estra 4,9-dièn-3-one), • AG3 (γ-lactone de l'acide 17β-hydroxy 11β-(4-diméthylaminophényl) 21-méthylène 3-oxo 19-nor 17α-(pregna 4,9-dièn-21-carboxylique) • AG4 10β-benzyl 17β-hydroxy 17α-(prop-1-ynyl) estra 4,9(11)-dièn-3-one • AG5 11β-[4-(diméthylamino) phényl] 17α-hydroxy 17β-(3-hydroxypropyl) 13α-méthyl gona-4,9-dièn-3-one (onapristone) • AG6 11β-[4-(diméthylamino) phényl] 17β-hydroxy 17α-(3-hydroxy-1-propényl) estra-4,9-dièn-3-one (lilopristone) • AG7 17α-acétoxy 11β-[4-(diméthylamino) phényl] 19-nor pregna 4,9-dièn-3,20-dione • et l'antiprogestérone AP1 (17R 11β-[4-(méthylthio) phényl] spiro (estra-4,9-dièn-17,2'(5'H) furan) 3-one décrit dans WO 87/05908 ex. 3) ont été mis en suspension dans de la méthyl cellusose à 0,5 % et administrés par voie orale (p.o). La morphine a été mise en solution dans du sérum physiologique et administrée par voie sous-cutanée (s.c). Enfin, le chlorhydrate de naloxone a été solubilisé dans de l'eau distillée et injecté par voie intra-péritonéale.
Tous les produits ont été administrées à l'animal sous un volume de 25 ml/kg.
Le premier jour (J1), les animaux ont reçu 5 injections sous-cutanées avec des doses croissantes de morphine réparties dans la matinée et sur le début de l'après midi, à une heure d'intervalle. Les 3 jours suivants (J2, J3, J4), ces mêmes animaux ont été traités le matin par deux administrations de la dose maximale utilisée au jour 1.
Les antiglucocorticoïdes AG1, AG2, AG3, AG4 et AG5 ont été administrées à la dose de 100 mg/kg par voie orale sous forme d'un traitement quotidient effectué 2 heures avant l'administration de morphine et ceci durant 4 jours.
La technique utilisée s'inspire de celle décrite par Way et al. J. Pharmacol. Exp. Ther. (1969), 167 : 1-8 et Huidobro et Maggiolo Acta Physiol. Pharmacol. Latinoam. (1961), 11 : 201-9. Ainsi, l'administration réitérée d'un morphinique induit un phénomène de dépendance physique qui peut être facilement mis en évidence par la précipitation d'un syndrome de sevrage à l'aide d'un antagoniste opiacé tel que la naloxone. Ce syndrome se manifeste, chez la souris sous la forme d'un comportement stéréotypé caractérisé par l'apparition de sauts répétitifs dont le nombre est en relation avec la durée et l'intensité du traitement par le morphinique.
Le sevrage des animaux a été réalisé le quatrième jour; trois heures après le dernier traitement, à l'aide de chlorhydrate de naloxone injecté par voie intrapéritonéale à la dose de 100 mg/kg. Immédiatement après cette injection, les animaux ont été placés individuellement dans des cylindres en plexiglass (hauteur = 40 cm, diamètre = 20 cm). Le nombre de sauts consécutifs au sevrage et effectués par chaque animal a été compté durant une période de 10 minutes.
Les résultats qui figurent dans les tableaux représentent les moyennes des valeurs individuelles assorties de l'erreur standard à la moyenne (m ± esm).

[2] = tested on: souris dépendantes à la morphine; assay: Naloxone-precipitated withdrawal syndrome (jumping) in morphine-treated mice, acute oral treatment 24 h before withdrawal; type: in vivo; details: result in words; 100 mg/kg p.o single dose 24 h before naloxone
Excerpt: as §1
as §2, with “Enfin, le chlorhydrate de naloxone a été solubilisé dans de l'eau distillée et injecté par voie intra-péritonéale.” left out

[3] = Morphine 799 mg/kg s.c (cumulated over 4 days) + compound 4 x 100 mg/kg p.o, naloxone 100 mg/kg ip, normal mice
[4] = compound alone, 4 x 100 mg/kg p.o, no morphine, naloxone 100 mg/kg ip on day 4, normal mice

Row | Structure (SMILES) | Nombre de sauts/10 minutes (m ± esm) [1, 3] [sauts/10 minutes] | Nombre de sauts/10 minutes (m ± esm) [1, 4] [sauts/10 minutes] | effet sur le syndrome de sevrage morphinique [2] | Nombre de sauts/10 minutes (m ± esm) ([1]; in vivo)
1 | CC#C[C@]1(O)CC[C@H]2[C@@H]3CCC4=CC(=O)CCC4=C3[C@@H](c3ccc(N(C)C)cc3)C[C@@]21C [AG1, 17β-hydroxy 11β-(4-diméthylaminophényl) 17α-(prop-1-ynyl) estra 4,9-dièn-3-one] | 68 ± 12 | 0 |  | 
2 | CC#CC1(O)CCC2C3CCC4=CC(=O)CCC4(Cc4ccc(C)cc4)C3=CCC21C (stereo not drawn) [AG2, 17β-hydroxy 10β-[(4-méthylphényl)méthyl] 17α-(prop-1-ynyl) estra 4,9-dièn-3-one] | 79 ± 9 | 0 | inactive | 
3 | C=C1C[C@@]2(CC[C@H]3[C@@H]4CCC5=CC(=O)CCC5=C4[C@@H](c4ccc(N(C)C)cc4)C[C@@]32C)OC1=O [AG3] | 66 ± 7 | 3 ± 2 |  | 
4 | CC#CC1(O)CCC2C3CCC4=CC(=O)CCC4(Cc4ccccc4)C3=CCC21C (stereo not drawn) [AG4, 10β-benzyl 17β-hydroxy 17α-(prop-1-ynyl) estra 4,9(11)-dièn-3-one] | 72 ± 7 | 1 ± 1 |  | 
5 | CN(C)c1ccc([C@H]2C[C@]3(C)[C@@H](CC[C@]3(O)CCCO)[C@@H]3CCC4=CC(=O)CCC4=C32)cc1 [AG5, 11β-[4-(diméthylamino)phényl] 17α-hydroxy 17β-(3-hydroxypropyl) 13α-méthyl gona-4,9-dièn-3-one] | 68 ± 12 | 1 ± 1 |  | 
6 | CSc1ccc([C@H]2C[C@@]3(C)[C@@H](CC[C@@]34C=CCO4)[C@@H]3CCC4=CC(=O)CCC4=C32)cc1 [AP1, 17R 11β-[4-(méthylthio)phényl] spiro (estra-4,9-dièn-17,2'(5'H)furan) 3-one, reference compound] |  |  | n'a pas modifié de façon significative | 
7 | CN1CC[C@]23c4c5ccc(O)c4O[C@H]2[C@@H](O)C=C[C@H]3[C@H]1C5 [Morphine, morphine, reference compound] |  |  |  | 115 ± 21 sauts/10 minutes and 97 ± 13 sauts/10 minutes and 117 ± 14 sauts/10 minutes and 103 ± 10 sauts/10 minutes
